Calls of active or inactive are those of the source. No cut-off for these calls is given here.
Legend:
[1] = biological target: T1, Muscarinic acetylcholine receptor M1 (Homo sapiens) (UniProt P11229); test: Agonist activity at M1 receptor (unknown origin) up to 10 uM; assay type: functional
T1 sequence (whole entry): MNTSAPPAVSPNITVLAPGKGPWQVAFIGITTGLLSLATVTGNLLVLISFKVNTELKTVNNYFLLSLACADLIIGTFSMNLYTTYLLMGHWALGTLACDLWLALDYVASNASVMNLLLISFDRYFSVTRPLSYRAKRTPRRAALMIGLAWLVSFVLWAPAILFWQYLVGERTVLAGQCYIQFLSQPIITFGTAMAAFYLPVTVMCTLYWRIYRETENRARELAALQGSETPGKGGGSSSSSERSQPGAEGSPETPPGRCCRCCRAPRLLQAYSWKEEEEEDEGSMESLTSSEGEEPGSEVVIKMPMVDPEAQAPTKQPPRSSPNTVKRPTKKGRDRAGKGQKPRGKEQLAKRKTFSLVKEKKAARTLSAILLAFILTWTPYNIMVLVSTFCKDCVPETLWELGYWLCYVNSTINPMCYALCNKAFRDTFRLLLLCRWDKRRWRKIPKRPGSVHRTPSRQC

[2] = biological target: Muscarinic acetylcholine receptor M1 (Rattus norvegicus) (UniProt P08482); test: Positive allosteric modulation of rat M1 receptor assessed as increase in acetylcholine-induced calcium flux by FLIPR assay relative to acetylcholine; assay type: functional
Sequence of Muscarinic acetylcholine receptor M1 (Rattus norvegicus) (P08482 whole entry): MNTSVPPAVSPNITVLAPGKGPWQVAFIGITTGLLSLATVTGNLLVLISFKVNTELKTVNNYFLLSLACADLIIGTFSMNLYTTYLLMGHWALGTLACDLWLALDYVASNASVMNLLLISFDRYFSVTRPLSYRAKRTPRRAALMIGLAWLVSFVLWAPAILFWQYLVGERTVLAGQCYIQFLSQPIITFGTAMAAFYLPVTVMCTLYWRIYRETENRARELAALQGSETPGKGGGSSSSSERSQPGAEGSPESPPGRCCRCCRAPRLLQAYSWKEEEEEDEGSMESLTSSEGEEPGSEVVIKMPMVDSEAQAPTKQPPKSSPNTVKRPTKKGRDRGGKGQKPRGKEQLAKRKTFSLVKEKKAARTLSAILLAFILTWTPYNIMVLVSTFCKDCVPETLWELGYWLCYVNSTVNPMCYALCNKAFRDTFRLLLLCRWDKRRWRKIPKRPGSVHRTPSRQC

[3] = biological target: T1, Muscarinic acetylcholine receptor M1 (Homo sapiens); test: Receptor occupancy at M1 receptor (unknown origin) at EC50
[4] = biological target: Muscarinic acetylcholine receptor M2 (Homo sapiens) (UniProt P08172); test: Agonist activity at M2 receptor (unknown origin) up to 10 uM; assay type: functional
Sequence of Muscarinic acetylcholine receptor M2 (Homo sapiens) (P08172 whole entry): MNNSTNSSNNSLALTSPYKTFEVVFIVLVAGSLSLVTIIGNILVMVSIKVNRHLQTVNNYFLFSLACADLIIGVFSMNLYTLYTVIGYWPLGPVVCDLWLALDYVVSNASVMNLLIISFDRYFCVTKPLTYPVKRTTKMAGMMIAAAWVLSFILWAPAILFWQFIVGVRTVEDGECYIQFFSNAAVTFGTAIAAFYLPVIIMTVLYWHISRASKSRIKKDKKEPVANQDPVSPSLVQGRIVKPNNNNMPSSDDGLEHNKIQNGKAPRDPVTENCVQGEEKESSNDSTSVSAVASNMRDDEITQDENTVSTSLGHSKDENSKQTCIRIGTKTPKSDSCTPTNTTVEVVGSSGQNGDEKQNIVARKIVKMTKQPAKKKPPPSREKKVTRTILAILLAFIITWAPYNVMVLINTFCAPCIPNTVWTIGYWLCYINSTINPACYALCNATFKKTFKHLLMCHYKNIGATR

[5] = biological target: Muscarinic acetylcholine receptor M1 (Rattus norvegicus, UniProt P08482); test: Positive allosteric modulation of rat M1 receptor assessed as increase in acetylcholine-induced calcium flux by FLIPR assay; assay type: functional
Sequence of Muscarinic acetylcholine receptor M1 (Rattus norvegicus, UniProt P08482) (P08482 whole entry): as the sequence (P08482 whole entry) above

[6] = biological target: Muscarinic acetylcholine receptor M5 (Homo sapiens) (UniProt P08912); test: Agonist activity at M5 receptor (unknown origin) up to 10 uM; assay type: functional
Sequence of Muscarinic acetylcholine receptor M5 (Homo sapiens) (P08912 whole entry): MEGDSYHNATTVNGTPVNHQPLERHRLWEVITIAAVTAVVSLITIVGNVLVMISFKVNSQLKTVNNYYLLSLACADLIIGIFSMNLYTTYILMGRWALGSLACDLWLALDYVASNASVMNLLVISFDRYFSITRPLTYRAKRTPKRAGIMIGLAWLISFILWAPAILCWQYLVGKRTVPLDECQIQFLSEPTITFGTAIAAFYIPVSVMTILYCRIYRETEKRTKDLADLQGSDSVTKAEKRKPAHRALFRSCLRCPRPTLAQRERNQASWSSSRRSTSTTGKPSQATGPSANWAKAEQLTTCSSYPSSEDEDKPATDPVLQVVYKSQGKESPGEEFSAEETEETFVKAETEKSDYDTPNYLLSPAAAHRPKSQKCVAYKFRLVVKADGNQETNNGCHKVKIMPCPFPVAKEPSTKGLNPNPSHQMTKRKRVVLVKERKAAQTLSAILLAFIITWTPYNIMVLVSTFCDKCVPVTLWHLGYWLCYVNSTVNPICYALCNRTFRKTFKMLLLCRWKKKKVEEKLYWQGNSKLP

[7] = biological target: Muscarinic acetylcholine receptor M3 (Homo sapiens) (UniProt P20309); test: Agonist activity at M3 receptor (unknown origin) up to 10 uM; assay type: functional
Sequence of Muscarinic acetylcholine receptor M3 (Homo sapiens) (P20309 whole entry, looked up): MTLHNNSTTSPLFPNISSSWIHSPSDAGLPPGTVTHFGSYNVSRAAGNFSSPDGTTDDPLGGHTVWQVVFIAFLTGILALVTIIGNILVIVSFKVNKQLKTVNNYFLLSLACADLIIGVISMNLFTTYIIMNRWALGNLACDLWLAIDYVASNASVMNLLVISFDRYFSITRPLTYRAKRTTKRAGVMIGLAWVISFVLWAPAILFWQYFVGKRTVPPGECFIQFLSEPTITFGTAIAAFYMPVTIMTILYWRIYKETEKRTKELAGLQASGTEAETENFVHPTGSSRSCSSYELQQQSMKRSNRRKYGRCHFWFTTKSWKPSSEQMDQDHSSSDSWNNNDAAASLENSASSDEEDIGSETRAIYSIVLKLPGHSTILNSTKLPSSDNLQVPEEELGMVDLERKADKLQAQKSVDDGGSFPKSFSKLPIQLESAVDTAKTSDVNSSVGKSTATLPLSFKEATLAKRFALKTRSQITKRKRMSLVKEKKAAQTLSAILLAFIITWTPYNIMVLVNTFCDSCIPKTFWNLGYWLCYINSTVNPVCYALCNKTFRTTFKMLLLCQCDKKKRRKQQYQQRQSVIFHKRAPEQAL

[8] = biological target: Muscarinic acetylcholine receptor M5 (Homo sapiens, UniProt P08912); test: Positive allosteric modulation of M5 receptor (unknown origin); assay type: functional
Sequence of Muscarinic acetylcholine receptor M5 (P08912 whole entry): as the sequence (P08912 whole entry) above

[9] = biological target: T2, Muscarinic acetylcholine receptor M1 (Homo sapiens, UniProt P11229); test: Positive allosteric modulation of human wild type M1 receptor assessed as increase in acetylcholine-induced calcium flux by FLIPR assay; assay type: functional
T2 sequence (P11229 whole entry): T1 sequence (whole entry)

[10] = biological target: T1, Muscarinic acetylcholine receptor M1 (Homo sapiens); test: Antagonist activity at M1 receptor (unknown origin); assay type: functional
[11] = biological target: Muscarinic acetylcholine receptor M1 (Homo sapiens, UniProt P11229, W400A/Y179A); test: Positive allosteric modulation of M1 receptor Y179A/W400A mutant (unknown origin)
Sequence of Muscarinic acetylcholine receptor M1 (Homo sapiens, UniProt P11229, W400A/Y179A) (P11229 whole entry Y179A/W400A): as the sequence (P08482 whole entry) above, with V5A, Y179A, S254T, S309P, K320R, G337A, W400A, V413I counted along it

[12] = biological target: Muscarinic acetylcholine receptor M2 (Homo sapiens) (UniProt P08172); test: Positive allosteric modulation of M2 receptor (unknown origin); assay type: functional
[13] = biological target: T1, Muscarinic acetylcholine receptor M1 (Homo sapiens); test: Positive allosteric modulation of human wild type M1 receptor assessed as increase in acetylcholine-induced calcium flux by FLIPR assay relative to acetylcholine; assay type: functional
[14] = biological target: Muscarinic acetylcholine receptor M4 (Homo sapiens) (UniProt P08173); test: Agonist activity at M4 receptor (unknown origin) up to 10 uM; assay type: functional
Sequence of Muscarinic acetylcholine receptor M4 (Homo sapiens) (P08173 whole entry): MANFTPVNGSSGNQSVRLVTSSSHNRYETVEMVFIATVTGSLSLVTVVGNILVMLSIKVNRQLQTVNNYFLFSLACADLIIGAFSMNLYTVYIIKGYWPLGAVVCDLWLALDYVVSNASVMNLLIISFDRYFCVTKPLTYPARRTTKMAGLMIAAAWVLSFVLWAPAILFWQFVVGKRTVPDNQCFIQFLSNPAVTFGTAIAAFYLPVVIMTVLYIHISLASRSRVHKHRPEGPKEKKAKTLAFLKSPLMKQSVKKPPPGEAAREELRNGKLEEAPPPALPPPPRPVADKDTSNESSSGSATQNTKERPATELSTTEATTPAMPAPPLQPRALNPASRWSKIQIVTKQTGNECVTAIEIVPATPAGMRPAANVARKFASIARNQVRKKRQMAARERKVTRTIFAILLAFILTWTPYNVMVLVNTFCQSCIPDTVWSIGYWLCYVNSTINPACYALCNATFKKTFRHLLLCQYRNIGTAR

[15] = test system: Muscarinic acetylcholine receptor M1 (Homo sapiens), P11229 [Y179A,W400A]; test: Positive allosteric modulation of M1 receptor Y179A/W400A mutant (unknown origin) relative to control
Sequence of Muscarinic acetylcholine receptor M1 (Homo sapiens), P11229 [Y179A,W400A] (P11229 whole entry Y179A/W400A): as the sequence (P08482 whole entry) above, with V5A, Y179A, S254T, S309P, K320R, G337A, W400A, V413I counted along it

[16] = biological target: Muscarinic acetylcholine receptor M5 (Homo sapiens) (UniProt P08912); test: Positive allosteric modulation of M5 receptor (unknown origin) relative to control; assay type: functional

## CC(C)[C@@H]1N=C(c2ccccc2F)c2cc(Cl)ccc2NC1=S
[1]
  Activity: inactive
[2]
  Emax: 88%
[3]
  Occ: 33%
[4]
  Activity: inactive
[5]
  EC50: 0.218 µM
[6]
  Activity: inactive
[7]
  Activity: inactive
[8]
  EC50: 1.3 µM
[9]
  EC50: 0.08 µM
[10]
  Kb: 0.61 µM
[11]
  EC50: 0.178 µM
[12]
  Activity: inactive
[13]
  Emax: 78%
[14]
  Activity: inactive
[15]
  Emax: 80%
[16]
  Emax: 70%
